Measurements reported in PMC8669712, “G Protein-Coupled Receptor GPR35 Suppresses Lipid Accumulation in Hepatocytes” (ACS Pharmacology & Translational Science, 2021).

Experiments:
HepG2 cells [1] = experiment: Oil Red O staining of LXR (T0901317)-induced lipid accumulation in HepG2 cells; assay type: cell-based, human; conditions: T0901317/lodoxamide, concentration-dependent
Description: Human hepatocellular carcinoma HepG2 cells were grown in Minimum Essential Medium (MEM) supplemented with 10% fetal bovine serum (FBS), 2 mM L-glutamine, 1× non-essential amino acid, 1 mM sodium pyruvate, and 1× penicillin/streptomycin. Materials for cell culture were all from Sigma-Aldrich (St. Louis, MO) or Thermo Fisher Scientific (Waltham, MA). Cells were incubated in a humidified CO2 incubator at 37 °C. […] Cells were seeded onto a 12-well plate (1 × 10^5 cells/well) for 24 h prior to drug treatment. […] Lipid accumulation was measured by Oil Red O staining.

HepG2 cells [2] = experiment: Label-free cellular impedance assay (xCELLigence) in HepG2 cells; assay type: cell-based, human; conditions: HepG2 cells; for impedance response of antagonist added alone: 1 × 10^–5 M; for impedance response to lodoxamide on co-addition of antagonist: antagonist 1 × 10^–5 M, lodoxamide 1 × 10^–8 M
Description: (§1) HepG2 cells were seeded onto xCELLigence E plates (2 × 10^4 cells/well) and incubated for 24 h at 37 °C. To evaluate GPR35 activation and its downstream G protein signaling, HepG2 cells or primary mouse hepatocytes were exposed to GPR35 antagonists or G protein inhibitors 1 h (overnight for Pertussis toxin) prior to GPR35 agonist stimulation. After the addition of GPR35 agonist or vehicle control, the impedance (represented as “cell index”) was recorded every 30 s over a 2 h period using xCELLigence RTCA (Agilent). Each experiment was repeated at least three times.

[3] = test system: clone 27 HepG2 cells transfected with human GPR35a; experiment: Cellular impedance in clone 27 cells transiently transfected with human GPR35a; assay type: cell-based; conditions: ML-145 1 × 10^–5 M, lodoxamide 1 × 10^–8 M
Description: Briefly, CRISPR KO cells were transiently transfected 24 h with the human GPR35a expression vector using LipofectAMINE 3000 reagent, according to the manufacturer’s instructions. […] Alternatively, after 24 h transfection, cells were seeded onto a 12-well plate (1 × 10^5 cells/well) for 24 h at 37 °C. Then, cells were incubated with T0901317 and/or GPR35 agonists (in MEM containing 5% FBS) for 72 h. After the drug treatment, cells were stained with Oil Red O to examine the levels of lipid accumulation. Each experiment was repeated at least three times.
as §1

[4] = test system: hepatocytes from hGPR35a-HA-expressing mice; experiment: Oil Red O lipid accumulation in hepatocytes from hGPR35a-HA-expressing mice; assay type: cell-based, mouse; conditions: hepatocytes from hGPR35a-HA-expressing mice
Description: All mice were bred as WT or homozygous onto a C57BL/6N background. Animals were cared for in accordance with national guidelines on animal experimentation. All animal experiments were conducted under a home office license held by the authors. WT, humanized GPR35a, or KO male mice at 3–4 months of age were used in this study. These mice were fed ad libitum with a standard mouse chow diet. Briefly, mouse primary hepatocytes were isolated using a two-step collagenase perfusion technique.[45] Twelve-well plates or xCELLigence E plates were coated with rat tail collagen I solution (Thermo Fisher Scientific) overnight at 37 °C and washed with PBS. Isolated primary hepatocytes were seeded onto 12-well plates (8 × 10^4 cells/well) or xCELLigence E plates (2 × 10^4 cells/well) in Wiliam’s E medium (Thermo Fisher Scientific) supplemented with 10% fetal bovine serum (FBS) and 1× penicillin/streptomycin. Cells were maintained for 7 days with a fresh medium change every other day. […] Human GPR35 activation was examined using xCELLigence RTCA assay. To access the impact of GPR35 agonists on the lipid accumulation, WT and humanized GPR35 hepatocytes were incubated with T0901317 and/or GPR35 agonists/antagonists, as indicated (in DMEM medium containing 5% FBS and 1.5% BSA) for 48 h. Alternatively, GPR35 KO hepatocytes were incubated with drugs, as indicated for 5 days. In the T0901317 pretreatment model, human GPR35 hepatocytes were stimulated with T0901317 for 2 days and then further treated with lodoxamide for a further 3 days. After each drug treatment, hepatocytes were stained with Oil Red O and quantified as described. Each experiment was repeated at least three times.
Lipid accumulation was measured by Oil Red O staining. A working solution of Oil Red O was prepared, as described with modification.[46] After drug treatment, cells were washed with PBS and fixed with formalin solution for 1 h at 4 °C. Then, cells were stained with Oil Red O working solution for 10 min at room temperature. After PBS washing, Oil Red O was extracted from cells using 150 μl of isopropanol and OD510 nm measured. After the lipid extraction, cells were further soaked in PBS overnight at 4 °C. These cells were then stained with Hoechst 33342 (1 μg/mL) and the fluorescence intensity of Hoechst (represents the DNA content in cells) was measured using a CLARIOstar plate reader (BMG LABTECH). Oil Red O accumulation was corrected for differences in DNA content and expressed as relative absorbency, taking the control condition (treated with vehicle only) as 1.

[5] = test system: hepatocytes from hGPR35a-HA-expressing mice; experiment: Label-free cellular impedance assay in hepatocytes from hGPR35a-HA-expressing mice; assay type: cell-based, mouse
human isoforms of GPR35 = molecular target: human isoforms of GPR35; set-up: method as in PMID 23888932; conditions: read-out: Ki from competition studies against a [3H]radiolabeled agonist; cited from earlier work
[6] = test system: mouse orthologue of GPR35; set-up: method as in PMID 22967846, PMID 30601679; conditions: cited from earlier work
[7] = test system: primary mouse hepatocytes; set-up: method as in Nam et al. 37; conditions: against 1 × 10^–6 M lodoxamide; ref Nam et al. 37; read-out: IC50 to block mouse GPR35 in primary hepatocytes; cited from earlier work

Row | SMILES | antagonist co-addition: effect of lodoxamide on LXR-induced lipid accumulation (HepG2 cells [1]) | impedance response of antagonist added alone (HepG2 cells [2]) | impedance response to lodoxamide on co-addition of antagonist (HepG2 cells [2]) | effect of co-addition of antagonist on the lodoxamide impedance signal in clone 27 cells transfected with human GPR35a [3] | effect of antagonist added alone on lipid content [4] | effect of antagonist on lodoxamide suppression of lipid accumulation ([4]; T0901317/lodoxamide 5 × 10^–6 M) | effect of co-addition of antagonist on the lodoxamide impedance response ([5]; ML-145 1 × 10^–5 M, lodoxamide 1 × 10^–7 M) | impedance effect of antagonist alone versus DMSO-containing vehicle ([5]; hepatocytes from hGPR35a-HA-expressing mice) | Ki (human isoforms of GPR35) [nM] | affinity at the mouse orthologue of GPR35 [6] | IC50 [7] [nM]
1 | CC(/C=C1\SC(=S)N(CCCC(=O)Nc2ccc(C(=O)O)c(O)c2)C1=O)=C\c1ccccc1 [ML-145, 2-hydroxy-4-[4-(5Z)-5-[(E)-2-methyl-3-phenylprop-2-enylidene]-4-oxo-2-sulfanylidene-1,3-thiazolidin-3-yl]butanoylaminobenzoic acid] | prevented the effect of lodoxamide on lipid accumulation | neither antagonist generated a response distinct from the vehicle | absent | blocked | without effect when added alone | blocked the effect of lodoxamide in a concentration-dependent manner | prevented | no separate effect | 8.7 | neither of these ligands has measurable affinity | 
2 | COC(=O)c1cnn(-c2ccc(F)cc2F)c1C=NNC(=S)NC(C)(C)C [CID-2745687, 1-(2,4-difluorophenyl)-5-[[2-[[(1,1-dimethylehyl)amino]thioxomethyl]hydrazinylidene]methyl]-1H-pyrazole-4-carboxylic acid methyl ester] | prevented the effect of lodoxamide on lipid accumulation | neither antagonist generated a response distinct from the vehicle | absent |  |  |  |  |  | 42 | neither of these ligands has measurable affinity | 98
